Source: ChEMBL document CHEMBL5385961, “In vitro and in vivo evaluation of novel chromeno[2,3-d]pyrimidinones as therapeutic agents for triple negative breast cancer” (RSC Med Chem, 2024)
The source made the active and inactive calls. The rule behind the calls is not given here.

How the values were obtained:
[1] = tested on: Hs-578T; assay: Cytotoxicity against human Hs-578T cells assessed as reduction in cell proliferation at 0.5 times IC50 measured after 24 hrs by BrdU incorporation assay relative to control; format: functional; set-up: scale not given: the % may be the effect or the level left
[2] = tested on: Hs-578T; assay: Cytotoxicity against human Hs-578T cells assessed as reduction in cell proliferation at 0.5 times IC50 measured after 48 hrs by BrdU incorporation assay relative to control; format: functional; set-up: scale not given: the % may be the effect or the level left
[3] = tested on: Hs-578T; assay: Induction of apoptosis in human Hs-578T cells assessed as increase in caspase-8 protein expression at IC50 measured after 24 hrs by Western blot analysis; format: functional, cell-based
[4] = tested on: Hs-578T; assay: Induction of apoptosis in human Hs-578T cells assessed as increase in BID protein expression at IC50 measured after 24 to 48 hrs by Western blot analysis; format: functional, cell-based; conditions: time 24-48 hrs
[5] = tested on: Hs-578T; assay: Induction of apoptosis in human Hs-578T cells assessed as increase in BAD protein expression at IC50 measured after 24 to 48 hrs by Western blot analysis; format: functional, cell-based; conditions: time 24-48 hrs
[6] = tested on: Hs-578T; assay: Induction of apoptosis in human Hs-578T cells assessed as increase in early apoptotic cells at IC50 measured after 24 to 48 hrs by Annexin V-FITC/PI staining based flow cytometry analysis; format: functional, cell-based; conditions: time 24-48 hrs
[7] = tested on: Hs-578T; assay: Induction of apoptosis in human Hs-578T cells assessed as increase in early apoptotic cells at IC50 measured after 48 hrs by Annexin V-FITC/PI staining based flow cytometry analysis relative to control; format: functional
[8] = tested on: Hs-578T; assay: Induction of cell cycle arrest in human Hs-578T cells assessed as increase in G2/M phase cell population at IC50 measured after 24 hrs by RNase/PI staining based flow cytometry analysis; format: functional
[9] = tested on: Hs-578T; assay: Antitumor activity against human Hs-578T cells implanted in chick eggs assessed as regression in tumors' perimeter at 2 times IC50 administered starting from day 13 and measured 17 days post embryo development by stereomicroscopic analysis relative to control; format: functional; conditions: time 5 day
[10] = Toxicity in wild type C57BL/6J mouse assessed as effect on vertical activity at 10 to 50 mg/kg, ip administered daily for 7 days and measured daily; format: organism-based; conditions: in vivo, 168 h, dose 10-50 mg/kg, time 7 day
[11] = Toxicity in wild type C57BL/6J mouse assessed as effect on body position at 10 to 50 mg/kg, ip administered daily for 7 days and measured daily; format: organism-based; conditions: in vivo, 168 h, dose 10-50 mg/kg, time 7 day
[12] = Toxicity in wild type C57BL/6J mouse assessed as piloerection at 10 to 50 mg/kg, ip administered daily for 7 days and measured daily; format: organism-based; conditions: in vivo, 168 h, dose 10-50 mg/kg, time 7 day
[13] = tested on: MDA-MB-231; assay: Cytotoxicity against human MDA-MB-231 cells assessed as cell viability at 30 uM incubated for 72 hrs by SRB assay relative to control; format: functional; conditions: read-out: Activity

Brc1ccc2c(c1)-c1cc(-c3ccccc3)nc3c1C(N=CN3c1ccccc1)O2 (stereo not drawn)
Activity [1]: ~8% | Activity [2]: 10% | Activity [3]: Active | Activity [4]: Active | Activity [5]: Active | Activity [6]: Active | Activity [7]: ~50% | Activity [8]: Active | Activity [9]: 12.4% | Activity [10]: Non-Toxic | Activity [11]: Non-Toxic | Activity [12]: Non-Toxic | viability at 30 µM [13]: 40.5%
